Test results as given in ChEMBL document CHEMBL3217570, “A class of novel AA-Trp-Trp-OBzl: synthesis, in vitro anti-proliferation, in vivo anti-tumor action, and intercalation mechanism” (Medchemcomm, 2011).
Residues, ends and D or L forms follow the SMILES beside them. *: point of attachment. OBn = c1ccc(CO*)cc1

Assays:
CCRF S-180 [1] = test: Antitumor activity against mouse S180 cells allografted in ICR mouse assessed as tumor growth inhibition at 8.9 mg/kg, ip qd for 7 days relative to control; format: functional; details: CCRF S-180, ip, 168 h, route intraperitoneal, read-out: TGI
H22 = test: Antiproliferative activity against mouse H22 cells after 48 hrs by MTT assay; format: functional, cell-based; details: H22, 48 h
Mus musculus [2] = test: Toxicity in mouse S180 cells allografted ICR mouse assessed as spleen index at 8.9 mg/kg, ip qd for 7 days relative to control; format: organism-based, CCRF S-180; design: dose 8.9 mg/kg, route intraperitoneal; details: in vivo, 168 h
K562 = test: Antiproliferative activity against human K562 cells after 48 hrs by MTT assay; format: functional, cell-based; details: K562, 48 h
Mus musculus [3] = test: Toxicity in mouse S180 cells allografted ICR mouse assessed as brain weight at 8.9 mg/kg, ip qd for 7 days relative to control; format: organism-based, CCRF S-180; design: dose 8.9 mg/kg, route intraperitoneal; details: in vivo, 168 h
B16 = test: Antiproliferative activity against mouse B16 cells after 48 hrs by MTT assay; format: functional, cell-based; details: B16, 48 h
Mus musculus [4] = test: Toxicity in mouse S180 cells allografted ICR mouse assessed as increase of body weight at 8.9 mg/kg, ip qd for 7 days relative to control; format: organism-based, CCRF S-180; design: dose 8.9 mg/kg, route intraperitoneal; details: in vivo, 168 h
Mus musculus [5] = test: Toxicity in mouse S180 cells allografted ICR mouse assessed as liver weight at 8.9 mg/kg, ip qd for 7 days relative to control; format: organism-based, CCRF S-180; design: dose 8.9 mg/kg, route intraperitoneal; details: in vivo, 168 h
HepG2 = test: Antiproliferative activity against human HepG2 cells after 48 hrs by MTT assay; format: functional, cell-based; details: HepG2, 48 h
Mus musculus [6] = test: Toxicity in mouse S180 cells allografted ICR mouse assessed as kidney weight at 8.9 mg/kg, ip qd for 7 days relative to control; format: organism-based, CCRF S-180; design: dose 8.9 mg/kg, route intraperitoneal; details: in vivo, 168 h
CCRF S-180 [7] = test: Antiproliferative activity against mouse S180 cells after 48 hrs by MTT assay; format: functional, cell-based; details: CCRF S-180, 48 h
Mus musculus [8] = test: Toxicity in ICR mouse assessed as mortality up to 500 mg/kg, ip after 7 days; format: organism-based; design: dose 500 mg/kg, route intraperitoneal; details: in vivo, 168 h
Mus musculus [9] = test: Toxicity in ICR mouse assessed as changes in organs up to 500 mg/kg, ip after 7 days by necropsy analysis; format: organism-based; design: dose 500 mg/kg, route intraperitoneal; details: in vivo, 168 h
Mus musculus [10] = test: Neurotoxicity in ICR mouse assessed as neurotoxic behavior up to 500 mg/kg, ip after 7 days; format: toxicity, organism-based; design: dose 500 mg/kg, route intraperitoneal; details: in vivo, 168 h
[11] = Acute toxicity in ip dosed ICR mouse after 7 days; format: organism-based; details: in vivo

| Compound | inhibition in vivo at 8.9 mg/kg (CCRF S-180 [1]) | IC50 (H22) | Activity (Mus musculus [2]) | IC50 (K562) | Activity (Mus musculus [3]) | IC50 (B16) | Activity (Mus musculus [4]) | Activity (Mus musculus [5]) | IC50 (HepG2) | Activity (Mus musculus [6]) | IC50 (CCRF S-180 [7]) | Activity (Mus musculus [8]) | Activity (Mus musculus [9]) | Activity (Mus musculus [10]) | LD50 at 168 h [11] |
| --- | --- | --- | --- | --- | --- | --- | --- | --- | --- | --- | --- | --- | --- | --- | --- |
| C[C@@H](O)[C@H](N)C(=O)N[C@@H](Cc1c[nH]c2ccccc12)C(=O)N[C@@H](Cc1c[nH]c2ccccc12)C(=O)OCc1ccccc1 (H-Thr-Trp-Trp-OBn) | -7.66% | 153 µM | Non-toxic | 173 µM | Non-toxic | 182 µM | Toxic | Non-toxic | 155 µM | Non-toxic | 155 µM | – | – | – | – |
| CC[C@H](C)[C@H](N)C(=O)N[C@@H](Cc1c[nH]c2ccccc12)C(=O)N[C@@H](Cc1c[nH]c2ccccc12)C(=O)OCc1ccccc1 (H-Ile-Trp-Trp-OBn) | 80.1% | 16.1 µM | Non-toxic | 16.2 µM | Non-toxic | 17.2 µM | Toxic | Non-toxic | 15.1 µM | Non-toxic | 15.1 µM | Non-toxic | Non-toxic | Non-toxic | > 500 mg/kg |
| NCC(=O)N[C@@H](Cc1c[nH]c2ccccc12)C(=O)N[C@@H](Cc1c[nH]c2ccccc12)C(=O)OCc1ccccc1 (H-Gly-Trp-Trp-OBn) | -6.51% | 51.1 µM | Non-toxic | 88.6 µM | Non-toxic | 159 µM | Toxic | Non-toxic | 58.3 µM | Non-toxic | 79.9 µM | – | – | – | – |
| N[C@@H](CS)C(=O)N[C@@H](Cc1c[nH]c2ccccc12)C(=O)N[C@@H](Cc1c[nH]c2ccccc12)C(=O)OCc1ccccc1 (H-Cys-Trp-Trp-OBn) | 48.4% | 24.7 µM | Non-toxic | 20.6 µM | Non-toxic | 32.8 µM | Toxic | Non-toxic | 35 µM | Non-toxic | 26.2 µM | Non-toxic | Non-toxic | Non-toxic | > 500 mg/kg |
| N[C@@H](Cc1cnc[nH]1)C(=O)N[C@@H](Cc1c[nH]c2ccccc12)C(=O)N[C@@H](Cc1c[nH]c2ccccc12)C(=O)OCc1ccccc1 (H-His-Trp-Trp-OBn) | 11.9% | 95.5 µM | Non-toxic | 101 µM | Non-toxic | 100 µM | Toxic | Non-toxic | 97.2 µM | Non-toxic | 83.3 µM | – | – | – | – |
| CSCC[C@H](N)C(=O)N[C@@H](Cc1c[nH]c2ccccc12)C(=O)N[C@@H](Cc1c[nH]c2ccccc12)C(=O)OCc1ccccc1 (H-Met-Trp-Trp-OBn) | 61.5% | 17.5 µM | Non-toxic | 17 µM | Non-toxic | 25.2 µM | Toxic | Non-toxic | 24.3 µM | Non-toxic | 19.8 µM | Non-toxic | Non-toxic | Non-toxic | > 500 mg/kg |
| N[C@@H](Cc1c[nH]c2ccccc12)C(=O)N[C@@H](Cc1c[nH]c2ccccc12)C(=O)N[C@@H](Cc1c[nH]c2ccccc12)C(=O)OCc1ccccc1 (H-Trp-Trp-Trp-OBn) | -19.1% | 106 µM | Non-toxic | 164 µM | Non-toxic | 162 µM | Toxic | Non-toxic | 163 µM | Non-toxic | 142 µM | – | – | – | – |
| N=C(N)NCCC[C@H](N)C(=O)N[C@@H](Cc1c[nH]c2ccccc12)C(=O)N[C@@H](Cc1c[nH]c2ccccc12)C(=O)OCc1ccccc1 (H-Arg-Trp-Trp-OBn) | 45.1% | 27.5 µM | Non-toxic | 27.2 µM | Non-toxic | 37.4 µM | Toxic | Non-toxic | 38.1 µM | Non-toxic | 29.4 µM | Non-toxic | Non-toxic | Non-toxic | > 500 mg/kg |
| CC(C)[C@H](N)C(=O)N[C@@H](Cc1c[nH]c2ccccc12)C(=O)N[C@@H](Cc1c[nH]c2ccccc12)C(=O)OCc1ccccc1 (H-Val-Trp-Trp-OBn) | 33.5% | 36 µM | Non-toxic | 40.4 µM | Non-toxic | 50.1 µM | Toxic | Non-toxic | 37.4 µM | Non-toxic | 36.1 µM | Non-toxic | Non-toxic | Non-toxic | > 500 mg/kg |
| C[C@H](N)C(=O)N[C@@H](Cc1c[nH]c2ccccc12)C(=O)N[C@@H](Cc1c[nH]c2ccccc12)C(=O)OCc1ccccc1 (H-Ala-Trp-Trp-OBn) | -11.4% | 84.9 µM | Non-toxic | 116 µM | Non-toxic | 132 µM | Toxic | Non-toxic | 49.9 µM | Non-toxic | 72.7 µM | – | – | – | – |
| NC(=O)CC[C@H](N)C(=O)N[C@@H](Cc1c[nH]c2ccccc12)C(=O)N[C@@H](Cc1c[nH]c2ccccc12)C(=O)OCc1ccccc1 (H-Gln-Trp-Trp-OBn) | 43% | 25.1 µM | Non-toxic | 24.6 µM | Non-toxic | 31.8 µM | Toxic | Non-toxic | 26.2 µM | Non-toxic | 27.6 µM | Non-toxic | Non-toxic | Non-toxic | > 500 mg/kg |
| O=C(N[C@@H](Cc1c[nH]c2ccccc12)C(=O)N[C@@H](Cc1c[nH]c2ccccc12)C(=O)OCc1ccccc1)[C@@H]1CCCN1 (H-Pro-Trp-Trp-OBn) | 12.5% | 91.5 µM | Non-toxic | 91.8 µM | Non-toxic | 94 µM | Toxic | Non-toxic | 91.7 µM | Non-toxic | 76 µM | – | – | – | – |
| N[C@@H](Cc1ccc(O)cc1)C(=O)N[C@@H](Cc1c[nH]c2ccccc12)C(=O)N[C@@H](Cc1c[nH]c2ccccc12)C(=O)OCc1ccccc1 (H-Tyr-Trp-Trp-OBn) | 53.4% | 23 µM | Non-toxic | 21.3 µM | Non-toxic | 24.8 µM | Toxic | Non-toxic | 23.6 µM | Non-toxic | 22.9 µM | Non-toxic | Non-toxic | Non-toxic | > 500 mg/kg |
| CC(C)C[C@H](N)C(=O)N[C@@H](Cc1c[nH]c2ccccc12)C(=O)N[C@@H](Cc1c[nH]c2ccccc12)C(=O)OCc1ccccc1 (H-Leu-Trp-Trp-OBn) | 13.8% | 36 µM | Non-toxic | 37.9 µM | Non-toxic | 53.4 µM | Toxic | Non-toxic | 41.5 µM | Non-toxic | 36.7 µM | – | – | – | – |
| NCCCC[C@H](N)C(=O)N[C@@H](Cc1c[nH]c2ccccc12)C(=O)N[C@@H](Cc1c[nH]c2ccccc12)C(=O)OCc1ccccc1 (H-Lys-Trp-Trp-OBn) | 15% | 33 µM | Non-toxic | 34.5 µM | Non-toxic | 57.4 µM | Toxic | Non-toxic | 25.9 µM | Non-toxic | 33 µM | – | – | – | – |
| N[C@@H](CC(=O)O)C(=O)N[C@@H](Cc1c[nH]c2ccccc12)C(=O)N[C@@H](Cc1c[nH]c2ccccc12)C(=O)OCc1ccccc1 (H-Asp-Trp-Trp-OBn) | -8.85% | 107 µM | Non-toxic | 170 µM | Non-toxic | 157 µM | Toxic | Non-toxic | 122 µM | Non-toxic | 164 µM | – | – | – | – |
